Reference: PMC6340889, “Structural basis of AimP signaling molecule recognition by AimR in Spbeta group of bacteriophages” (Protein & Cell, 2018)
pKd: −log10 of the molar value. Ends that are not written are not given here.

Molecular target: T1, full-length AimR (wild-type) (Bacillus phage SPbeta, UniProt O64094)
T1 construct: 6xHis (C); made in house; host or cells: E. coli BL21 (DE3)
Assay: Isothermal titration calorimetry (ITC), AimP vs wild-type AimR
Parameters: species or system Bacillus subtilis SPbeta phage
Details: wild-type full-length AimR 10–20 μM in cell, AimP 200–500 μM in syringe; 20 mM Tris-HCl (pH 8.0), 150 mM NaCl; 25°C; MicroCal iTC200; read-out: Kd (dissociation constant) for AimP binding
Procedure: DNA sequence encoding full-length AimR from Bacillus subtilis SPbeta phage was cloned into the pET-28a vector with a C-terminal 6×His-tag. The construct was introduced into E.coli BL21 (DE3) cells. The recombinant strains were cultured in LB medium at 37°C until the OD600 reached 0.8. After 16 h of induction with 0.5 mM IPTG at 16°C, the cells were harvested by centrifugation at 5, 000 rpm for 30 min at 4°C. The pelleted cells were then resuspended in the lysis buffer containing 50 mM Tris-HCl (pH 8.0) and 150 mM NaCl, and subsequently lysed by ultrasonication. The lysate was then centrifuged at 17,000 rpm for 30 min at 4°C. Protein purification was carried out following the routine procedure (Jiang et al., 2017). Briefly, the supernatant was loaded onto a Ni-NTA column (Qiagen). The target protein was eluted with 50 mM Tris-HCl (pH 8.0) containing 150 mM NaCl and 250 mM imidazole. The fractions containing purified protein were pooled, concentrated to 0.5 ml and loaded onto a Superdex200 increase column (GE Healthcare) equilibrated with buffer containing 20 mM Tris-HCl (pH 8.0) and 150 mM NaCl. All the AimR mutant proteins were purified following the same protocol.
ITC experiments were performed using a MicroCal iTC200 instrument (Malvern Instruments Ltd.). […] The resulting isotherms were recorded and fitted with Origin software (OriginLab).

T1 sequence (O64094 whole entry): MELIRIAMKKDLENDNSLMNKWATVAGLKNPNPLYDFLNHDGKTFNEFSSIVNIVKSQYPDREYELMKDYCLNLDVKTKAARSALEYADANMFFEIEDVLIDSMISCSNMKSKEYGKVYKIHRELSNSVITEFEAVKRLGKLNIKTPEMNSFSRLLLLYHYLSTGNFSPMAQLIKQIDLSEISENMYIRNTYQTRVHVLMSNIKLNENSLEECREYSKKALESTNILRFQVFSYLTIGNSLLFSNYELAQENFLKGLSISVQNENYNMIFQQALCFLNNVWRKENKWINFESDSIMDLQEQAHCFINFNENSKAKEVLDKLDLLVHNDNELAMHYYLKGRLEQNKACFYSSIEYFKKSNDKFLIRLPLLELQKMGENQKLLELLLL

GMPRGA [AimP] gave a pKd of 7.40.
